Test results as given in patent US20240400560A1, “BICYCLIC HETEROCYCLIC DERIVATIVE HAVING VIRAL GROWTH INHIBITORY ACTIVITY AND PHARMACEUTICAL COMPOSITION CONTAINING SAME” (Shionogi & Co., Ltd., priority 2021, published 2024).

What was measured:
[1] = target: SARS-CoV-2 3CL protease (Severe acute respiratory syndrome coronavirus 2, UniProt P0DTD1); assay: Inhibitory activity test against SARS-CoV-2 3CL proteases; assay type: biochemical; settings: read-out: IC50 (50% SARS-CoV-2 3CL protease inhibitory concentration)
[2] = system: SARS-CoV-2; assay: Inhibitory activity of cytopathic effect (CPE) in Vero E6/TMPRSS2 cells; assay type: cell-based
[3] = Severe acute respiratory syndrome coronavirus 2, VeroE6/TMPRSS2, 50% SARS-CoV-2 infected cell death inhibitory concentration, class symbols
[4] = Severe acute respiratory syndrome coronavirus 2, VeroE6/TMPRSS2, 72 h, 50% SARS-CoV-2 infected cell death inhibitory concentration, CellTiter-Glo 2.0 after 3 days culture

Structure (SMILES) | IC50 [1] | EC50 [2, 3] | EC50 [2, 4]
COc1cc(-c2cc3cn[nH]c3cc2Cl)cc2c1c(=O)n(-c1cncc(C)c1)c(=O)n2Cc1ccc(F)c(C#N)c1 [Compound I-0063] | < 100 nM | < 1000 nM | 
COc1cc(-c2cc3c(cc2Cl)NC(=O)C3)cc2c1c(=O)n(-c1cncc(C)c1)c(=O)n2Cc1cc(Cl)c(F)cn1 [Compound I-0059] | 2 nM |  | 335 nM
COc1cc(-c2cc(C#N)ccc2Cl)cc2c1c(=O)n(-c1cncc(C)c1)c(=O)n2Cc1cc(C#N)c(F)cc1C [Compound I-0164] | 1.2 nM |  | 80 nM
COc1cc(-c2cc3c(cc2Cl)NC(=O)C3)cc2c1c(=O)n(-c1cncc(Cl)c1)c(=O)n2Cc1cc(F)c(F)c(F)c1 [Compound I-0065] | < 100 nM | < 1000 nM | 
O=c1[nH]cccc1Cn1c(=O)c2ccc3ccccc3c2n(Cc2cc(F)c(F)c(F)c2)c1=O [Compound I-0315] | 350 nM |  | 411 nM
COc1cc(-c2cc(C#N)ccc2Cl)cc2c1c(=O)n(Cc1ncn(C)n1)c(=O)n2Cc1cc(F)c(F)c(F)c1F [Compound I-0053] | 30 nM |  | 497 nM
Cc1cncc(-n2c(=O)c3c(Cl)cc(-c4cc5cn[nH]c5cc4Cl)cc3n(Cc3ccc(F)c(C#N)c3)c2=O)c1 [Compound I-0011] | < 100 nM | < 1000 nM | 
COc1cc(-c2cc(C(N)=O)ccc2Cl)cc2c1c(=O)n(-c1cncc(C)c1)c(=O)n2Cc1ccc(F)c(C#N)c1 [Compound I-0029] | 7.8 nM |  | 49800 nM
COCCNC(=O)c1ccc(Cl)c(-c2cc(OC)c3c(=O)n(-c4cncc(C)c4)c(=O)n(Cc4ccc(F)c(C#N)c4)c3c2)c1 [Compound I-0195] | < 100 nM | 1000 to 10000 nM | 
CC(=O)c1ccc(Cl)c(-c2ccc3c(=O)n(Cc4ccc[nH]c4=O)c(=O)n(Cc4cc(F)c(F)c(F)c4)c3c2)c1 [Compound I-0284] | < 100 nM | 1000 to 10000 nM | 
COc1cc(-c2cc3cn[nH]c3cc2Cl)cc2c1c(=O)n(-c1cncc(C)c1)c(=O)n2Cc1cc(C#N)c(F)cc1C [Compound I-0163] | 1.1 nM |  | 273 nM
COc1cc(-c2cc3c(cc2Cl)NC(=O)C3)cc2c1c(=O)n(Cc1ncn(C)n1)c(=O)n2Cc1cc(Cl)c(F)cc1F [Compound I-0266] | < 100 nM | < 1000 nM | 
Cc1cncc(-n2c(=O)c3c(F)cc(-c4cc(CO)ccc4Cl)cc3n(Cc3ccc(F)c(C#N)c3)c2=O)c1 [Compound I-0054] | < 100 nM | < 1000 nM | 
COc1cc(-c2cc3c(cc2Cl)NC(=O)C3)cc2c1c(=O)n(-c1cncc(C)c1)c(=O)n2Cc1cc(C#N)ccc1Cl [Compound I-0167] | 1.9 nM |  | 528 nM
Cc1cncc(-n2c(=O)c3c(F)cc(-c4cc(C(N)=O)ccc4Cl)cc3n(Cc3cc(F)c(F)cc3F)c2=O)c1 [Compound I-0055] | < 100 nM | < 1000 nM | 
Cc1cncc(-n2c(=O)c3c(Cl)cc(-c4cc(C(N)=O)ccc4Cl)cc3n(Cc3ccc(F)c(C#N)c3)c2=O)c1 [Compound I-0010] | < 100 nM | 1000 to 10000 nM | 
COc1cc(-c2cc(S(N)(=O)=O)ccc2Cl)cc2c1c(=O)n(-c1cncc(C)c1)c(=O)n2Cc1ccc(F)c(C#N)c1 [Compound I-0066] | 5 nM |  | 11100 nM
COc1cc(-c2cc(NS(C)(=O)=O)ccc2Cl)cc2c1c(=O)n(-c1cncc(C)c1)c(=O)n2Cc1ccc(F)c(C#N)c1 [Compound I-0072] | 10 nM |  | 2430 nM
CNC(=O)c1ccc(Cl)c(-c2ccc3c(=O)n(Cc4ccc[nH]c4=O)c(=O)n(Cc4cc(F)c(F)c(F)c4)c3c2)c1 [Compound I-0285] | < 100 nM | 1000 to 10000 nM | 
Cc1cncc(-n2c(=O)c3c(F)cc(-c4cc(C#N)ccc4Cl)cc3n(Cc3cc(F)c(F)c(F)c3)c2=O)c1 [Compound I-0049] | < 100 nM | < 1000 nM | 
COc1cc(-c2cc3c(cc2Cl)NC(=O)C3)cc2c1c(=O)n(Cc1ncn(C)n1)c(=O)n2Cc1cc(F)c(F)c(F)c1F [Compound I-0047] | < 100 nM | 1000 to 10000 nM | 
COc1cc(-c2cc(C(N)=O)ccc2Cl)cc2c1c(=O)n(-c1cncc(C)c1)c(=O)n2Cc1cc(F)c(F)c(F)c1 [Compound I-0067] | < 100 nM | < 1000 nM | 
COc1cc(-c2cc(C#N)ccc2Cl)cc2c1c(=O)n(-c1cncc(C)c1)c(=O)n2Cc1cc(C#N)ccc1Cl [Compound I-0168] | < 100 nM | < 1000 nM | 

Structure (SMILES) | IC50 [1] | EC50 [2, 3] | EC50 [2, 4]
COc1cc(-c2cc(C(N)=O)ccc2Cl)cc2c1c(=O)n(Cc1ncn(C)n1)c(=O)n2Cc1cc(F)c(F)c(F)c1 [Compound I-0034] | < 100 nM | 1000 to 10000 nM | 
COc1cc(-c2cc3c(cc2Cl)NC(=O)C3)cc2c1c(=O)n(Cc1ncn(C)n1)c(=O)n2Cc1cc(F)c(F)cc1F [Compound I-0273] | < 100 nM | 1000 to 10000 nM | 
COc1cc(-c2cc(C(=O)NCCO)ccc2Cl)cc2c1c(=O)n(-c1cncc(C)c1)c(=O)n2Cc1ccc(F)c(C#N)c1 [Compound I-0194] | < 100 nM | 1000 to 10000 nM | 
COc1cc(-c2cc3cn[nH]c3cc2Cl)cc2c1c(=O)n(Cc1ncn(C)n1)c(=O)n2Cc1cc(F)c(F)c(Cl)c1 [Compound I-0264] | 2.6 nM |  | 349 nM
COc1cc(-c2cc(C#N)ccc2Cl)cc2c1c(=O)n(Cc1ncn(C)n1)c(=O)n2Cc1cc(F)c(F)c(F)c1 [Compound I-0035] | 25 nM |  | 363 nM
Cc1cncc(-n2c(=O)c3c(F)cc(-c4cc(C(N)=O)ccc4Cl)cc3n(Cc3cc(F)c(F)c(F)c3)c2=O)c1 [Compound I-0073] | < 100 nM | < 1000 nM | 
COc1cc(-c2cc3cn[nH]c3cc2Cl)cc2c1c(=O)n(-c1cncc(C)c1)c(=O)n2Cc1cc(F)c(F)c(C#N)c1 [Compound I-0166] | < 100 nM | < 1000 nM | 
Cn1cnc(Cn2c(=O)c3c(Cl)cc(-c4cc5cn[nH]c5cc4Cl)cc3n(Cc3cc(F)c(F)c(F)c3)c2=O)n1 [Compound I-0015] | < 100 nM | < 1000 nM | 
Cc1cncc(-n2c(=O)c3c(Cl)cc(-c4cc(C(N)=O)ccc4Cl)cc3n(Cc3cc(F)c(F)c(F)c3)c2=O)c1 [Compound I-0007] | 19 nM |  | 1140 nM
Cn1cnc(Cn2c(=O)c3c(F)cc(-c4cc5c(cc4Cl)NC(=O)C5)cc3n(Cc3cc(F)c(F)cc3F)c2=O)n1 [Compound I-0280] | < 100 nM | 1000 to 10000 nM | 
COc1cc(-c2cc3cn[nH]c3cc2Cl)cc2c1c(=O)n(-c1cncc(C)c1)c(=O)n2Cc1cc(C#N)ccc1Cl [Compound I-0170] | < 100 nM | < 1000 nM | 
COc1cc(-c2cc(C(=O)NCCN(C)C)ccc2Cl)cc2c1c(=O)n(-c1cncc(C)c1)c(=O)n2Cc1ccc(F)c(C#N)c1 [Compound I-0190] | < 100 nM | 1000 to 10000 nM | 
COc1cc(-c2cc(C(=O)N3CCN(C)CC3)ccc2Cl)cc2c1c(=O)n(-c1cncc(C)c1)c(=O)n2Cc1ccc(F)c(C#N)c1 [Compound I-0208] | < 100 nM | 1000 to 10000 nM | 
Cn1cnc(Cn2c(=O)c3c(Cl)cc(-c4cc5c(cc4Cl)NC(=O)C5)cc3n(Cc3cc(F)c(F)c(F)c3)c2=O)n1 [Compound I-0003] | 8.6 nM |  | 692 nM
COc1cc(-c2cc(C(=O)N(C)C)ccc2Cl)cc2c1c(=O)n(-c1cncc(C)c1)c(=O)n2Cc1ccc(F)c(C#N)c1 [Compound I-0200] | < 100 nM | 1000 to 10000 nM | 
Cc1cncc(-n2c(=O)c3c(F)cc(-c4cc(C(N)=O)ccc4Cl)cc3n(Cc3ccc(F)c(C#N)c3)c2=O)c1 [Compound I-0051] | < 100 nM | 1000 to 10000 nM | 
CCOc1cc(-c2cc(C#N)ccc2Cl)cc2c1c(=O)n(-c1cncc(C)c1)c(=O)n2Cc1ccc(F)c(C#N)c1 [Compound I-0295] | 15 nM |  | 426 nM
COc1cc(-c2cc3c(cc2Cl)NC(=O)C3)cc2c1c(=O)n(-c1cncc(Cl)c1)c(=O)n2Cc1ccc(F)c(C#N)c1 [Compound I-0028] | 7.5 nM |  | 10100 nM
COc1cc(-c2cc3c(cc2Cl)NC(=O)C3)cc2c1c(=O)n(-c1cncc(C)c1)c(=O)n2Cc1cc(C#N)c(F)cc1C [Compound I-0160] | 0.73 nM |  | 670 nM
COc1cc(-c2cc3c(cc2Cl)NC(=O)C3)cc2c1c(=O)n(Cc1ncn(C)n1)c(=O)n2Cc1cc(F)c(F)c(F)c1 [Compound I-0139] | 4.5 nM |  | 3620 nM
COc1cc(-c2cc(C(C)=O)ccc2Cl)cc2c1c(=O)n(Cc1ncn(C)n1)c(=O)n2Cc1cc(F)c(F)c(F)c1 [Compound I-0116] | 12 nM |  | 1750 nM
Cc1cncc(-n2c(=O)c3c(F)cc(-c4cc(CO)ccc4Cl)cc3n(Cc3cc(F)c(F)c(F)c3)c2=O)c1 [Compound I-0052] | < 100 nM | < 1000 nM | 
